Laboratory results from patent publication US20160052926A1, “NOVEL PYRIMIDINE AND PYRIDINE COMPOUNDS AND USAGE THEREOF” (HUTCHISON MEDIPHARMA LIMITED, priority 2013, published 2016).

What was measured:
Recombinant human FGFR1 = Recombinant human FGFR1 (Homo sapiens, UniProt P11362); assay: Transcreener Kinase Assay of FGFR1; type: biochemical; conditions: read-out: FGFR1 (FP) IC50
Description: Transcreener Kinase Assay of FGFR1
(§1) Prepare Solution • Compounds were solved in DMSO and were diluted with assay buffer to 5 folds of final concentration keeping the DMSO concentration at 5%. Further dilution are needed to make final concentrations are at 1, 0.33, 0.11, 0.037, 0.012, 0.004, 0.0014, 0.0005 μM; (the final concentration of DMSO is 1%). • Enzyme/Substrate stock Preparation: Recombinant human FGFR1 and Poly E4Y are both diluted in assay buffer.
(§2) Enzymatic Reaction • In a 96-well plate, Add 5 μL of compound or control. (positive control: 5 μL of 5% DMSO; negative control: 5 μL of 500 mM EDTA) into desired wells; • Add 10 μL of Enzyme/Substrate stock into each well; • Add 10 μL of ATP Diluents to initiate the enzyme reaction and votex the plate immediately on a plate shaker; • For the wells to make standard curve, add 5 μL of 5% DMSO, 10 μL of assay buffer and 10 μL of ATP standard curve stock. • Incubate the plate for 45 min at 28[…] on a plate shaker in a low speed.
Excitation wavelength: 610 nm, Emission wavelength: 670 nm.
(§3) • [ADP] in Compound well represents the ADP concentration in compound well. • [ADP] in Positive control well represents the ADP concentration in 5% DMSO well • Conversion of mP value to ADP concentration is calculated based on the formula which determined by standard curve. And mP value is measured by following the instruction provided by BellBrook Labs. (www.bellbrooklabs.com). 6. IC50: calculated using XL-Fit 2.0 software.

Recombinant human FGFR2 = Recombinant human FGFR2 (Homo sapiens, UniProt P21802); assay: Transcreener Kinase Assay of FGFR2; type: biochemical; conditions: read-out: FGFR2 (FP) IC50
Description: Transcreener Kinase Assay of FGFR2
as §1, with “•” for “Prepare Solution •”, “FGFR2” for “FGFR1”, “buffer. The final concentration is 0.3 ng/μL for FGFR2 and 62.5 ng/μL for Poly E4Y. The mixture is being kept in ice before use; • Prepare ATP Diluents, 10 mM ATP is diluted in assay buffer, the final concentration is 25 μM; • Prepare ADP Diluents: diluted ADP (500 μM) in assay buffer, the final concentration is 25 μM; • Prepare ATP standard curve stock as following:” for “buffer.”
as §2, with “•” for “Enzymatic Reaction •”
• Detection Mix Preparation: The mixture is made by dilution with MilliQ water; as following: ADP Alexa633 tracer (1:100), ADP antibody (1:158), and stop & detect buffer (1:10); • Tracer Only control Preparation: The mixture is made by dilution with MilliQ water; as following: ADP Alexa633 tracer (1:100), and stop & detect buffer (1:10) • No Tracer control Preparation: stop & detect buffer is diluted with MilliQ water; by 10 fold. • Add 25 μL of detection mix, Tracer Only control and No Tracer control into corresponding wells, respectively; • Incubate at 28 °C for 1 h, on a plate shaker in a low speed; • Measure florescence polarization (FP) on TECAN F500. Excitation wavelength: 610 nm, Emission wavelength: 670 nm.
as §3

FGFR3 kinase = FGFR3 kinase (Homo sapiens, UniProt P22607); assay: Z-Lyte Kinase Assay of FGFR3; type: biochemical
Description: Z-Lyte Kinase Assay of FGFR3
The final concentrations are 1, 0.33, 0.11, 0.037, 0.012, 0.004, 0.0014, 0.00046 μM, and the final concentration of DMSO is 2%. • 3) Kinase/Peptide Mixture (P/K solution): Prepare Kinase/Peptide Mixture by diluting the kinase to 0.7 μg/ml and the Z-LYTE™ Tyr 4 peptide to 4 μM in 1.33× Kinase Buffer. Mix gently by pipetting. • 4) Phospho-peptide Solution (PP solution): Add 0.4 μl of Z-LYTE™ Tyr 4 Phospho-peptide to 99.6 μl of 1.33× Kinase Buffer. • 5) ATP Solution: Prepare ATP Solution by diluting the 10 mM of ATP in 1.33× Kinase Buffer to 300 uM. • 6) Development Solution: Dilute Development Reagent B with Development Buffer as 1:128.
Shake the plate for 30 Sec and centrifuge (1500 rpm, 1 min) • Seal the plate to protect from the light and incubate the plate for 1 hour at RT (25-30[…]) • 2) Development reaction • Add 5 μl of the Development solution to all wells • Shake the plate for 30 Sec and centrifuge (1500 rpm, 1 min) • Seal the plate to protect from the light and incubate the plate for 1 hour at RT (25-30[…]) • 3) Stop and read • Add 5 μl of the Stop reagent to all wells • Shake the plate for 30 Sec and centrifuge (1500 rpm, 1 min) • Measure the value of Coumarin (Ex400 nm, Em445 nm) and fluorescein (Ex400 nm, Em520 nm), respectively.
Inhibition rate(IR)=1−%Photest Cpd/%PhoC2
• determined with add-in software for Microsoft Excel, XLfit™ (version 2.0) from ID Business Solutions (Guildford, UK)

KG-1 = assay: Cellular Proliferation Assay (Cell Counting Kit-8), KG-1; type: cell-based; conditions: Homo sapiens, KG1 cells, 72 hours
Description: (§4) Cellular Proliferation Assay
(§5) • KG-1 (ATCC Accession No. CCL-246), • SNU-16 (ATCC Accession No. CRL-5974), • RT-112 (ECACC Accession No. 85061106)
(§6) • FGFR related cancer cell proliferation is measured in 96-well plates using Cell Counting Kit-8 (Dojindo CK04-13). • Seed 30000 cells/well of KG1, 5000 cells/well of SNU16, and 1000 cells/well of RT112 in a volume of 100 μL/well in growth media. • After 24 hours, dilute the compound to 10, 3.3, 1.1, 0.37, 0.12, 0.04, 0.013, 0.004 μM, keeping the DMSO concentration at 5%. • Add 10 μL of 8-point compound series to the wells of culturing cells. • Incubate at 37° C. and 5% CO2 for 72 hours • Add 10 μL/well of CCkit8 and incubate at 37° C. and 5% CO2 for an hour • Detect the optical density of each well at 450 nm on Labsystems Multiskan K3.
(§7) • ODcompound well represents the optical density of cells treated with compound. • ODcell well represents the optical density of cells without compounds treatment. (only 0.5% DMSO) • ODcontrol well represents the optical density of culture media background
(§8) The concentration of compound providing 50% of proliferation inhibition was calculated using Excel Fit.

SNU-16 = assay: Cellular Proliferation Assay (Cell Counting Kit-8), SNU-16; type: cell-based; conditions: Homo sapiens, SNU-16 cells, 72 hours
Description: as §4, §5, §6, §7, §8

FGFR3 kinase, sequence (P22607 23-806): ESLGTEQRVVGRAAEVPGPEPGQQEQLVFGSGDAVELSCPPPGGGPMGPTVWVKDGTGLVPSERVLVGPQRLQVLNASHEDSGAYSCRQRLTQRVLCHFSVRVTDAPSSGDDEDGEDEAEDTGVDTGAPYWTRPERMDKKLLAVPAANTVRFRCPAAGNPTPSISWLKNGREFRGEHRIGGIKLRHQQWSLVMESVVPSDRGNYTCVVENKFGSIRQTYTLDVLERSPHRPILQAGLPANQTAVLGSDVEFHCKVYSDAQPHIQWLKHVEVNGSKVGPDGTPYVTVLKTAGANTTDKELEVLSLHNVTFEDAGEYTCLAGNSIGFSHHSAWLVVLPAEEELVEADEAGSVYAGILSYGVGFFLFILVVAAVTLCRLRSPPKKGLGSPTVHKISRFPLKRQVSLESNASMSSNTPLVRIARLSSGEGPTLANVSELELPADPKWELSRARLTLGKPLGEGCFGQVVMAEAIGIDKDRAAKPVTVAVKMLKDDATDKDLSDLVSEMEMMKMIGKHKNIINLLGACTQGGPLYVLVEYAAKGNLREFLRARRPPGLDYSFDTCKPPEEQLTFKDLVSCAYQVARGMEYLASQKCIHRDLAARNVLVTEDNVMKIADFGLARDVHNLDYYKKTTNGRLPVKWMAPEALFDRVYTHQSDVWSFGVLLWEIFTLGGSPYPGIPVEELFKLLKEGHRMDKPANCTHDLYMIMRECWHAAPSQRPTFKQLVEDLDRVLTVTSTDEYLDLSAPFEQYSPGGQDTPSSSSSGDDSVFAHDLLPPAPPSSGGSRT
Recombinant human FGFR2, sequence (P21802 22-821): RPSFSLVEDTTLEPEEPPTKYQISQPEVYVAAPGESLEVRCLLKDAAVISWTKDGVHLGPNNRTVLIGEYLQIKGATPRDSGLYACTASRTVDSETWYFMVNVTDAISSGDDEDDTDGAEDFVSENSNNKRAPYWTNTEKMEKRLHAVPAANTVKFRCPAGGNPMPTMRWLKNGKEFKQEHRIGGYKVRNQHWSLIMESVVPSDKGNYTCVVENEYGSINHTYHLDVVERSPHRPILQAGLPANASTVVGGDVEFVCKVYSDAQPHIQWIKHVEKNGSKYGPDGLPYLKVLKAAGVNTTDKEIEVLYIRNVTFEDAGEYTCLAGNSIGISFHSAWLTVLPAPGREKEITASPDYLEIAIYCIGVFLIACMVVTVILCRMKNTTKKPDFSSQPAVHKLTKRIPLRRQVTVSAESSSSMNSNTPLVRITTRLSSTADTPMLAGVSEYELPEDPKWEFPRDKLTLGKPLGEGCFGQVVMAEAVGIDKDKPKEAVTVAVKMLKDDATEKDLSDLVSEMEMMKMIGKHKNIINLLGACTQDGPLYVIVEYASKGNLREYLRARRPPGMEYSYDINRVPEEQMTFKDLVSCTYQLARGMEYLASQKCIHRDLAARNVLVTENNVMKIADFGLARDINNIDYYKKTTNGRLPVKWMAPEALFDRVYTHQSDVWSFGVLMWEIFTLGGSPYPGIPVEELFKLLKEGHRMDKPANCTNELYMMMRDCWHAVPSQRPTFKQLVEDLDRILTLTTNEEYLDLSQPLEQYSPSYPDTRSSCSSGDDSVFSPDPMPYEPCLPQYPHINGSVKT
Recombinant human FGFR1, sequence (P11362 22-822): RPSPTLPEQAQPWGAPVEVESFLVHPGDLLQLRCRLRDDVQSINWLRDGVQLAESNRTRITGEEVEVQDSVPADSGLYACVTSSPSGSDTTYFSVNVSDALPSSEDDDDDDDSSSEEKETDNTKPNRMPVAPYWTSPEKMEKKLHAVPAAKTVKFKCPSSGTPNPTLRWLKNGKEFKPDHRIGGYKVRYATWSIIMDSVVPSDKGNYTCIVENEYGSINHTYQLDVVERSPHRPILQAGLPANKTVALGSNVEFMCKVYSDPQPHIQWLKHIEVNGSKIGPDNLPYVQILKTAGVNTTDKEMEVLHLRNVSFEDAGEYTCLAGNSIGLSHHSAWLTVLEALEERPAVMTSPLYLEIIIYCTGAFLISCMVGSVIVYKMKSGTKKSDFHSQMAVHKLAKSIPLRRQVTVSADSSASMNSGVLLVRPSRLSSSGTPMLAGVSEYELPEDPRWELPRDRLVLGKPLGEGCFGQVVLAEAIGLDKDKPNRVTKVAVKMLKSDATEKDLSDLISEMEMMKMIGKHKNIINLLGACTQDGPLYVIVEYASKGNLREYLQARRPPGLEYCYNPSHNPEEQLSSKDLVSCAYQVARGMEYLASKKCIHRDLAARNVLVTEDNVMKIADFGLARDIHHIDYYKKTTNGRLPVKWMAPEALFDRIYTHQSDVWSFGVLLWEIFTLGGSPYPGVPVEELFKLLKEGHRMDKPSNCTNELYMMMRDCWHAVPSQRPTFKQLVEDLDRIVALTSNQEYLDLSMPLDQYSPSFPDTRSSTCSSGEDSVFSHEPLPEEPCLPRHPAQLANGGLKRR

Structure (SMILES)	IC50 (Recombinant human FGFR1)	IC50 (Recombinant human FGFR2)	IC50 (FGFR3 kinase)	IC50 (KG-1)	IC50 (SNU-16)
CCN1CCN(c2ccc(Nc3ncc(CCc4cc(C(=O)NOC)cc5occc45)cn3)cc2)CC1 [Compound 5]	0.013 µM	0.012 µM	0.047 µM	0.024 µM	0.056 µM
CCN1CCN(c2cccc(Nc3ncc(CCc4cc(OC)cc(C(=O)NC)c4)cn3)c2)CC1 [Compound 9, 3-(2-(2-((3-(4-ethylpiperazin-1-yl)phenyl)amino)pyrimidin-5-yl)ethyl)-5-methoxy-N-methylbenzamide]	0.038 µM	0.028 µM	0.064 µM	0.098 µM	0.044 µM
CCN1CCN(c2cccc(Nc3ncc(CCc4cc(OC)cc(C(=O)NOC)c4)cn3)c2)CC1 [Compound 14, 3-(2-(2-((3-(4-ethylpiperazin-1-yl)phenyl)amino)pyrimidin-5-yl)ethyl)-N,5-dimethoxybenzamide]	0.003 µM	0.004 µM	0.004 µM	0.009 µM	0.007 µM
CCN1CCN(c2ccc(Nc3ncc(/C=C/c4cc(OC)cc(C(=O)NOC)c4)cn3)cc2)CC1 [Compound 16]	0.012 µM	0.008 µM	0.016 µM	0.013 µM	0.017 µM
CCN1CCN(c2ccc(Nc3ncc(CCc4cc(OC)cc(C(=O)NOC)c4)cn3)cc2)CC1 [Compound 17]	0.004 µM	0.006 µM	0.009 µM	0.009 µM	0.012 µM
CONC(=O)c1cc(CCc2cnc(Nc3cccc(N4C[C@@H](C)N[C@@H](C)C4)c3)nc2)cc(OC)c1 [Compound 18]	0.012 µM	0.006 µM	0.008 µM	0.077 µM	0.003 µM
CONC(=O)c1cc(CCc2cnc(Nc3ccc(N4CCN(CCO)CC4)cc3)nc2)cc(OC)c1 [Compound 19, 3-(2-(2-((4-(4-(2-hydroxyethyl)piperazin-1-yl)phenyl)amino)pyrimidin-5-yl)ethyl)-N,5-dimethoxybenzamide]	0.005 µM	0.005 µM	0.011 µM	0.019 µM	0.022 µM
CCN1CCN(c2ccc(Nc3ncc(CCc4cc(OC)cc(C(=O)NOCCO)c4)cn3)cc2)CC1 [Compound 20, 3-(2-(2-((4-(4-ethylpiperazin-1-yl)phenyl)amino)pyrimidin-5-yl)ethyl)-N-(2-hydroxyethoxy)-5-methoxybenzamide]	0.043 µM	0.034 µM	0.128 µM	0.589 µM	0.34 µM
CONC(=O)c1cc(CCc2cnc(Nc3cnn(C)c3)nc2)cc(OC)c1 [Compound 23]	0.009 µM	0.006 µM	0.013 µM	0.029 µM	0.018 µM
CONC(=O)c1cc(CCc2cnc(Nc3ccn(C)n3)nc2)cc(OC)c1 [Compound 24]	0.047 µM	0.027 µM	0.094 µM	0.122 µM	0.151 µM
CONC(=O)c1cc(CCc2cnc(Nc3cnn(C)c3)nc2)c(F)c(OC)c1 [Compound 29]	0.003 µM	0.002 µM	0.007 µM	0.005 µM	0.005 µM
CONC(=O)c1cc(CCc2cnc(Nc3ccc(N4CCOCC4)cc3)nc2)cc(OC)c1 [Compound 37]	0.01 µM	0.007 µM	0.016 µM	0.046 µM	0.044 µM
CONC(=O)c1cc(CCc2cnc(Nc3ccc(N4CCN(C)[C@H](C)C4)cc3)nc2)cc(OC)c1 [Compound 40]	0.012 µM	0.01 µM	0.039 µM	0.031 µM	0.048 µM
CONC(=O)c1cc(CCc2cnc(Nc3ccc(N4C[C@@H](C)N[C@@H](C)C4)cc3)nc2)cc(OC)c1 [Compound 41]	0.004 µM	0.006 µM	0.009 µM	0.038 µM	0.024 µM
CCN1CCN(c2ccc(Nc3ncc(CCc4cc(OC)cc(C(=O)NOC)c4)cn3)cn2)CC1 [Compound 42]	0.002 µM	0.004 µM	0.008 µM	0.011 µM	0.015 µM
CONC(=O)c1cc(CCc2cnc(Nc3ccc(OCCN4CCCC4)cc3)nc2)cc(OC)c1 [Compound 43]	0.016 µM	0.01 µM	0.048 µM	0.069 µM	0.033 µM
CCN1CCN(c2ccc(Nc3ncc(CCc4cc(OC)cc(C(=O)NC5CC5)c4)cn3)cc2)CC1 [Compound 46]	0.132 µM	0.034 µM	0.061 µM	0.059 µM	0.113 µM
CCN1CCN(c2ccc(Nc3ccc(CCc4cc(C(=O)NOC)cc(OC)c4C)cn3)cc2)CC1 [Compound 47]	0.006 µM	0.006 µM	0.008 µM	0.063 µM	0.074 µM
CCN1CCN(c2ccc(Nc3ncc(CCc4cc(OC)cc(C(=O)NOC)c4)cn3)cc2)C[C@H]1C [Compound 48]	0.005 µM	0.005 µM	0.015 µM	0.011 µM	0.016 µM
